Reference: the NIST ThermoML archive (doi:10.1016/j.jct.2004.12.008)

Tests used:
[1] = refractive index (Na D-line) (dimensionless); conditions: 293.15 K; 101.33 kPa; Liquid; Standard Abbe refractometry
[2] = 101 kPa, Liquid
[3] = xn = mol fraction of the nth substance listed; conditions: 101 kPa, Liquid

Cc1ccccc1C [1,2-dimethylbenzene]
Conditions | refractive index
[1] | 1.50573

[2]
Conditions | mass density [kg/m3]
293.15 K | 878.6
303.15 K | 872.25
313.15 K | 859.67
323.15 K | 840.84

Cc1ccccc1C [1,2-dimethylbenzene] + O=[N+]([O-])c1ccccc1
[3], x1 = 1
Conditions | mass density [kg/m3]
293.15 K | 878.6
303.15 K | 872.25
313.15 K | 859.67
323.15 K | 840.84

Cc1cccc(C)c1 [1,3-dimethylbenzene]
Conditions | refractive index
[1] | 1.49735

[2]
Conditions | mass density [kg/m3]
293.15 K | 864.2
303.15 K | 855.76
313.15 K | 847.11
323.15 K | 838.27
333.15 K | 829.22
343.15 K | 819.97
353.15 K | 810.51

Cc1cccc(C)c1 [1,3-dimethylbenzene] + O=[N+]([O-])c1ccccc1
[3], x1 = 1
Conditions | mass density [kg/m3]
293.15 K | 864.2
303.15 K | 855.76
313.15 K | 847.11
323.15 K | 838.27
333.15 K | 829.22
343.15 K | 819.97
353.15 K | 810.51

Cc1ccc(C)cc1 [1,4-dimethylbenzene]
Conditions | refractive index
[1] | 1.49577

[2]
Conditions | mass density [kg/m3]
293.15 K | 861
303.15 K | 852.28
313.15 K | 843.58
323.15 K | 834.92
333.15 K | 826.27
343.15 K | 817.66
353.15 K | 809.07

Cc1ccc(C)cc1 [1,4-dimethylbenzene] + O=[N+]([O-])c1ccccc1
[3], x1 = 1
Conditions | mass density [kg/m3]
293.15 K | 861
303.15 K | 852.28
313.15 K | 843.58
323.15 K | 834.92
333.15 K | 826.27
343.15 K | 817.66
353.15 K | 809.07

c1ccccc1 [benzene]
Conditions | refractive index
[1] | 1.5009

[2]
Conditions | mass density [kg/m3]
293.15 K | 877.8
303.15 K | 867.99
313.15 K | 857.87
323.15 K | 847.4
333.15 K | 836.59
343.15 K | 825.42

c1ccccc1 [benzene] + O=[N+]([O-])c1ccccc1
[3], x1 = 1
Conditions | mass density [kg/m3]
293.15 K | 877.8
303.15 K | 867.99
313.15 K | 857.87
323.15 K | 847.4
333.15 K | 836.59
343.15 K | 825.42

CCc1ccccc1 [ethylbenzene]
Conditions | refractive index
[1] | 1.4962

[2]
Conditions | mass density [kg/m3]
293.15 K | 867.82
303.15 K | 858.6
313.15 K | 851.85

CCc1ccccc1 [ethylbenzene] + O=[N+]([O-])c1ccccc1
[3], x1 = 1
Conditions | mass density [kg/m3]
293.15 K | 867.82
303.15 K | 858.6
313.15 K | 851.85
323.15 K | 847.58
333.15 K | 845.79
343.15 K | 846.48

O=[N+]([O-])c1ccccc1 [nitrobenzene]
Conditions | refractive index
[1] | 1.55488

[2]
Conditions | mass density [kg/m3]
293.15 K | 1202.95
303.15 K | 1193.56
313.15 K | 1183.37
323.15 K | 1172.38
333.15 K | 1160.59
343.15 K | 1148
353.15 K | 1134.61

O=[N+]([O-])c1ccccc1 [nitrobenzene] + C=Cc1ccccc1
[3], x2 = 0
Conditions | mass density [kg/m3]
293.15 K | 1202.95
303.15 K | 1193.56
313.15 K | 1183.37
323.15 K | 1172.38
333.15 K | 1160.59
343.15 K | 1148
353.15 K | 1134.61

C=Cc1ccccc1 [styrene]
Conditions | refractive index
[1] | 1.546

[2]
Conditions | mass density [kg/m3]
293.15 K | 906
303.15 K | 896.44
313.15 K | 886.88
323.15 K | 877.32
333.15 K | 867.76
343.15 K | 858.2
353.15 K | 848.64

Cc1ccccc1 [toluene]
Conditions | refractive index
[1] | 1.4965

[2]
Conditions | mass density [kg/m3]
293.15 K | 866.75
303.15 K | 857.53
313.15 K | 848.25
323.15 K | 838.9
333.15 K | 829.5
343.15 K | 820.03
353.15 K | 810.5

Cc1ccccc1 [toluene] + O=[N+]([O-])c1ccccc1
[3], x1 = 1
Conditions | mass density [kg/m3]
293.15 K | 866.75
303.15 K | 857.53
313.15 K | 848.25
323.15 K | 838.9
333.15 K | 829.5
343.15 K | 820.03
353.15 K | 810.5
